These results are taken from patent US10889569B2, “Condensed ring group azacyclobutyl triazole derivative, preparation method therefor and use thereof in medicine” (Jiangsu Hengrui Medicine Co., Ltd., priority 2016, dated 2021).

Data set [1] in a line: Pharmacokinetics assay in rats after intragastrical administration. It is filed as in vivo, SD rats. The following applies: Sprague-Dawley, rat, plasma, po, 30 mg/kg, intragastric, male rats; for Vd/F: read-out: Apparent distribution volume Vz/F; for AUC: read-out: Area under curve AUC; for CL/F: read-out: Clearance CLz/F; for half-life: read-out: Half-life T1/2 (converted); for Cmax: read-out: Plasma concentration Cmax; for MRT: read-out: Residence time MRT. As for the experimental part: Male SD rats were used as test animals. The drug concentration in plasma at different time points was determined by LC/MS/MS method after intragastrical administration of the compounds of Examples 2, 17, 34, 37, 38, 39 and 43 to rats. The pharmacokinetic behavior of the compounds of the present invention was studied and evaluated in rats.
Twenty-one healthy adult male Sprague-Dawley (SD) rats were purchased from Shanghai Jiesijie Laboratory Animal Co., LTD, with Certificate No.: SCXK (Shanghai) 2013-0006, and equally divided into 7 groups (3 rats per group).
A certain amount of the test compound was weighed, and added with 2.5% by volume of DMSO and 97.5% by volume of 10% solutol HS-15 to formulate a […] colorless, clear and transparent solution.
After an overnight fast, SD rats were administered intragastrically the test compounds at an administration dosage of 30.0 mg/kg and an administration volume of 10.0 mL/kg.
The rats were intragastrically administered the compounds of Examples 2, 17, 34, 37, 38, 39 and 43. 0.2 mL of blood was taken from the orbital sinus before administration and at 0.5, 1.0, 2.0, 4.0, 6.0, 8.0, 11.0 and 24.0 hours after administration. The samples were stored in heparinized tubes, and centrifuged for 10 minutes at 4° C. at 3500 rpm to separate the plasma. The plasma samples were stored at −20° C. The rats were fed 2 hours after administration.
The content of the test compounds in the plasma of rats after intragastrical administration of the test compounds at different concentrations was determined: 50 μL of rat plasma at each time after administration was taken, added with 50 μL of the internal standard solution of camptothecin (100 ng/mL) and 150 μL of acetonitrile, vortex-mixed for 5 minutes, and centrifuged for 10 minutes (4000 rpm). 3 μL of the supernatant was taken from the plasma samples for LC/MS/MS analysis.

The next data set concerns the target human OTR (Homo sapiens, UniProt P30559). Put plainly: Inhibition activity on human OTR (Fluo-4 calcium assay, HEK293/human OTR stably transfected cells). It is filed as cell-based. The settings on record: oxytocin 3 nM. On the procedure:
The inhibition effect of the compounds of the present invention on the activity of human OTR protein expressed in HEK293/human OTR stably transfected cells was determined by the following experimental method:
The pcDNA3.1-hOTR plasmid was transferred into HEK293 cells with the Lipofectamine® 3000 transfection reagent; G418 was added on the next day to screen, and monoclonal cell lines were selected.
(§1) HEK293/human OTR stably transfected cells were inoculated in a 96-well plate with an inoculation density of 25,000 cells/well one day in advance. On the next day, a loading buffer containing Fluo-4 dye was formulated using the reagents in the Fluo-4 NW calcium assay kit, and the culture medium was then removed; 100 μl of the loading buffer containing Fluo-4 dye were added to each well, and the plate was incubated at 37° C. for 30 minutes. After that, the plate was moved to room temperature and equilibrated for 10 minutes. The compounds were formulated at 10^6, 10^5, 10^4, 10^3, 10^2 and 10^1 nM. 1 μl of the compounds in each concentration was added to each well, and the plate was incubated at room temperature for 10 minutes. 50 μl of oxytocin polypeptide (3 nM) were automatically added by the machine, and the values were immediately detected at 494/516 nM by the flexstation 3 microplate reader. IC50 values of the compounds were calculated by Graphpad prism software using fluorescence signals corresponding to different concentrations.
The inhibition activity of the compounds of the present invention on human OTR was determined by the above test, and the obtained IC50 values are shown in Table 1.

The target in the next data set is human V1aR (Homo sapiens (Human), UniProt P37288). Description: Inhibition activity on human V1aR (Fluo-4 calcium assay, HEK293/human V1aR stably transfected cells). The following applies: vasopressin 3 nM. The format is cell-based. On the procedure: The inhibition effect of the compounds of the present invention on the activity of human V1 aR protein expressed in HEK293/human V1aR stably transfected cells was determined by the following experimental method:
The pcDNA3.1-V1aR plasmid was transferred into HEK293 cells with the Lipofectamine® 3000 transfection reagent; G418 was added on the next day to screen, and monoclonal cell lines were selected.
as §1, with “V1aR” for “OTR”, “vasopressin” for “oxytocin”
The inhibition activity of the compounds of the present invention on human V1aR was determined by the above test, and the obtained IC50 values are shown in Table 2.

Broadly, the AUC is concentration integrated over time. As a reminder, the MRT is the average time that molecules of a dose stay in the body. Usually IC50 stands for the midpoint of a concentration-inhibition curve.

human V1aR, sequence (P37288 whole entry): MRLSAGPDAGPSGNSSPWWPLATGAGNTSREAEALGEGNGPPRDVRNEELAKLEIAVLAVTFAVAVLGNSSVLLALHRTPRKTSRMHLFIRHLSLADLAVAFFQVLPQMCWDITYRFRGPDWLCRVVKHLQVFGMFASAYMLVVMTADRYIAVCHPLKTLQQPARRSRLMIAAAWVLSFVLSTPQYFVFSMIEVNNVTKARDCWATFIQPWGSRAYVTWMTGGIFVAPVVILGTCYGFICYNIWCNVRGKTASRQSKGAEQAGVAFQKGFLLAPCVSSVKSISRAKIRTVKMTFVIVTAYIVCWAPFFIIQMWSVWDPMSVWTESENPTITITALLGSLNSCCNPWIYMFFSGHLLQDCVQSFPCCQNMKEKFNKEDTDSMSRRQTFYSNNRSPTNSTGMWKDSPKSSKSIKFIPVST

Turning to `COc1ccc(-n2c(COC(F)F)nnc2N2CC(n3cc(C)c4cc(F)ccc43)C2)cn1` [Example 34, 1-(1-(5-((Difluoromethoxy)methyl)-4-(6-methoxypyridin-3-yl)-4H-1,2,4-triazol-3-yl)azetidin-3-yl)-5-fluoro-3-methyl-1H-indole], in data set [1], the Vd/F was 17.8 ± 3.33 L/kg, the AUC was determined as 5330 ± 981 ng·h/mL, the CL/F was determined as 95.8 ± 16 mL/min/kg and the half-life is 2.16 ± 0.345 h. Moreover, in data set [1], the Cmax was 1070 ± 252 ng/mL and the MRT stood at 3.84 ± 1.08 h. Also, the IC50 at human OTR amounted to 8 nM.
Consider `COc1ccc(-n2c(N3CC(N4CCOc5cc(F)ccc54)C3)nnc2C(F)(F)F)cn1` [Example 43, 7-Fluoro-4-(1-(4-(6-methoxypyridin-3-yl)-5-(trifluoromethyl)-4H-1,2,4-triazol-3-yl)azetidin-3-yl)-3,4-dihydro-2H-benzo[b][1,4]oxazine], for which the IC50 on human V1aR came to 7900 nM. In addition, in data set [1], the Vd/F is 31.1 ± 19.3 L/kg, the AUC turned out to be 5560 ± 2330 ng·h/mL, the CL/F came out at 3.81 ± 0.12 mL/min/kg and the half-life was 3.31 ± 0.23 h. In addition, the Cmax in data set [1] was determined as 1580 ± 601 ng/mL. Moreover, the IC50 on human OTR was 15 nM.
On to `COC(=O)NCc1nnc(N2CC(N3CCCc4cc(F)ccc43)C2)n1-c1ccc(OC)nc1` [Example 36, Methyl ((5-(3-(6-fluoro-3,4-dihydroquinolin-1(2H)-yl)azetidin-1-yl)-4-(6-methoxypyridin-3-yl)-4H-1,2,4-triazol-3-yl)methyl)carbamate], for which the 50% inhibitory concentration (IC50) worked out at 2100 nM at human V1aR and 124 nM on human OTR.
Taken in the same sequence, the figures for `COc1ccc(-n2c(C(F)F)nnc2N2CC(N3CCOc4cc(F)ccc43)C2)cn1` [Example 35, 4-(1-(5-(Difluoromethyl)-4-(6-methoxypyridin-3-yl)-4H-1,2,4-triazol-3-yl)azetidin-3-yl)-7-fluoro-3,4-dihydro-2H-benzo[b][1,4]oxazine] were 14100 nM and 181 nM.
Regarding `COc1ccc(-n2c(COC(F)F)nnc2N2CC(N3CCOc4cc(F)ccc43)C2)cn1` [Example 37, 4-(1-(5-((Difluoromethoxy)methyl)-4-(6-methoxypyridin-3-yl)-4H-1,2,4-triazol-3-yl)azetidin-3-yl)-7-fluoro-3,4-dihydro-2H-benzo[b][1,4]oxazine], the IC50 on human V1aR amounted to 1700 nM. In addition, in data set [1], the Vd/F came out at 56.3 ± 66 L/kg, the AUC came to 8180 ± 9850 ng·h/mL, the CL/F was 201 ± 223 mL/min/kg and the half-life was 2.95 ± 0.42 h. For the same molecule, in data set [1], the Cmax is 1120 ± 950 ng/mL and the MRT came to 4.9 ± 1.36 h. Further, the IC50 on human OTR was 4 nM.
Turning to `COCc1nnc(N2CC(N3CCCc4c(F)cccc43)C2)n1-c1ccc(OC)nc1` [Example 19, 5-Fluoro-1-(1-(5-(methoxymethyl)-4-(6-methoxypyridin-3-yl)-4H-1,2,4-triazol-3-yl)azetidin-3-yl)-1,2,3,4-tetrahydroquinoline], the IC50 on human V1aR worked out at 2000 nM; on human OTR it was 41 nM.
In the same order, the values of `COCc1nnc(N2CC(N3CCCc4cc(F)ccc43)C2)n1-c1ccc2c(c1)OCO2` [Example 28, 1-(1-(4-(Benzo[d][1,3]dioxolan-5-yl)-5-(methoxymethyl)-4H-1,2,4-triazol-3-yl)azetidin-3-yl)-6-fluoro-1,2,3,4-tetrahydroquinoline] are 2400 nM and 231 nM.
Regarding `COc1ccc(-n2c(N3CC(N4CCCc5cc(F)ccc54)C3)nnc2C(F)(F)F)cn1` [Example 39, 6-Fluoro-1-(1-(4-(6-methoxypyridin-3-yl)-5-(trifluoromethyl)-4H-1,2,4-triazol-3-yl)azetidin-3-yl)-1,2,3,4-tetrahydroquinoline], at human V1aR, the IC50 was determined as 2000 nM. Moreover, in data set [1], the Vd/F was 35 ± 3.01 L/kg, the area under the curve (AUC) came out at 3830 ± 83.7 ng·h/mL, the CL/F stood at 131 ± 2.85 mL/min/kg and the half-life is 3.09 ± 0.199 h. Also, in data set [1], the Cmax was found to be 1200 ± 68.5 ng/mL and the mean residence time MRT is 3.61 ± 0.022 h. For the same molecule, the half-inhibitory concentration (IC50) on human OTR was determined as 6 nM.
On to `COc1ccc(-n2c(CO)nnc2N2CC(c3cccc4cc(F)ccc34)C2)cn1` [Example 41, (5-(3-(6-Fluoronaphthalen-1-yl)azetidin-1-yl)-4-(6-methoxypyridin-3-yl)-4H-1,2,4-triazol-3-yl)methanol], for which the half-maximal inhibitory concentration (IC50) was determined as 9000 nM at human V1aR and 150 nM at human OTR.
Regarding `COc1ccc(-n2c(C)nnc2N2CC(N3CCCc4c(F)cccc43)C2)cn1` [Example 20, 5-Fluoro-1-(1-(4-(6-methoxypyridin-3-yl)-5-methyl-4H-1,2,4-triazol-3-yl)azetidin-3-yl)-1,2,3,4-tetrahydroquinoline], the results for the IC50 at human V1aR and at human OTR were 3100 nM and 104 nM, respectively.
Taken in the same sequence, the figures for `COCc1nnc(N2CC(N3CCC(C)(C)c4cc(F)ccc43)C2)n1-c1ccc(OC)nc1` [Example 42, 6-Fluoro-1-(1-(5-(methoxymethyl)-4-(6-methoxypyridin-3-yl)-4H-1,2,4-triazol-3-yl)azetidin-3-yl)-4,4-dimethyl-1,2,3,4-tetrahydroquinoline] were 4500 nM and 23 nM.
In the same order, the values of `COCc1nnc(N2CC(N3CCOc4c(F)cccc43)C2)n1-c1ccc(OC)nc1` [Example 22, 8-Fluoro-4-(1-(5-(methoxymethyl)-4-(6-methoxypyridin-3-yl)-4H-1,2,4-triazol-3-yl)azetidin-3-yl)-3,4-dihydro-2H-benzo[b][1,4]oxazine] are 7500 nM and 177 nM.
